Test results as given in publication PMC6751662, “Pharmacological and functional similarities of the human neuropeptide Y system in C. elegans challenges phylogenetic views on the FLP/NPR system” (Cell Communication and Signaling : CCS, 2019).

Key:
Type in all cases: cell-based
[1] = molecular target: T1, Y2R (Homo sapiens, UniProt P49146); test: cAMP reporter gene assay, Gi/o, Y2R; conditions: for cAMP assay (Gi/o), Y2R: 4 h, lower = higher Gi/o activity, transfected HEK293, CRE-luciferase, mean of >=3 independent experiments; for Gi (Gs) [x-fold of forskolin], Y2R, mean: inhibition of cAMP production induced by 1 µM forskolin (set to 1.00), transiently transfected HEK293 cells, mean of at least three independent experiments
T1 construct: expressed in transfected cells; host or cells: HEK293, transient
T1 sequence (P49146 1-381): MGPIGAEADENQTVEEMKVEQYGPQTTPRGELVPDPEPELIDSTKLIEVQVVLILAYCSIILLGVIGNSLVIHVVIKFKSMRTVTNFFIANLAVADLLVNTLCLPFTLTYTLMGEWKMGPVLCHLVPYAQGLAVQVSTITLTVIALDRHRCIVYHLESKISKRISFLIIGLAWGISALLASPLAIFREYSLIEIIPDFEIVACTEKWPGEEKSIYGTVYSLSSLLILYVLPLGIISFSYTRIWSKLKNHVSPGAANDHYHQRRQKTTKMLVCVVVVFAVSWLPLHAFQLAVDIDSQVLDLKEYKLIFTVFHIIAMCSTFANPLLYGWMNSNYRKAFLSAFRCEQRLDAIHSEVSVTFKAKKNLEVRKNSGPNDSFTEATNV
Method: (§1) Activation of Gs and Gi/o was assessed with a cAMP reporter gene assay. HEK293 cells grown to 70–80% confluency in 6-well plates were transiently co-transfected with vectors encoding the receptor and the cAMP reporter gene plasmid pGL4.29 [luc2P/CRE/Hygro] (Promega; 4 μg total, 1:1 ratio) using Metafectene Pro (3 μl/μg DNA; Biontex) following the manufacturer’s instructions. 16 h post transfection, the cells were seeded into white 384-well plates at a density of 20,000 cells/well. On the next day, the medium was removed and the cells were stimulated with 20 μl of peptide solution (or forskolin as positive control) in serum-free DMEM for 4 h. For measuring Gi/o activity, the peptide solutions additionally contained 1 μM forskolin to elevate cellular cAMP levels. After incubation, the luciferase substrate OneGlo in lysis buffer (Promega) was added and the luminescence was measured in a microplate reader Tecan Spark (Tecan). Data were analyzed with GraphPad Prism 5.03 and are shown as fold of basal or fold of forskolin in case of Gαi/o activity.
(§2) For in vitro activation, data is presented as mean ± SEM of at least three independent experiments conducted in technical triplicate. […] For the C. elegans NPRs, we considered the strongest response elicited by any of the peptides downstream of a particular receptor as the receptor’s maximal signal. This may or may not be the biological maximum that can be reached by the ‘true’ endogenous agonist. For the human receptors, the response to the established endogenous agonist reflected the maximal signal.

[2] = molecular target: T2, Y5R (Homo sapiens, UniProt Q15761); test: cAMP reporter gene assay, Gi/o, Y5R; conditions: for cAMP assay (Gi/o), Y5R: 4 h, lower = higher Gi/o activity, transfected HEK293, CRE-luciferase, mean of >=3 independent experiments; for Gi (Gs) [x-fold of forskolin], Y5R, mean: inhibition of cAMP production induced by 1 µM forskolin (set to 1.00), transiently transfected HEK293 cells, mean of at least three independent experiments
T2 construct: expressed in transfected cells; host or cells: HEK293, transient
T2 sequence (Q15761 1-445): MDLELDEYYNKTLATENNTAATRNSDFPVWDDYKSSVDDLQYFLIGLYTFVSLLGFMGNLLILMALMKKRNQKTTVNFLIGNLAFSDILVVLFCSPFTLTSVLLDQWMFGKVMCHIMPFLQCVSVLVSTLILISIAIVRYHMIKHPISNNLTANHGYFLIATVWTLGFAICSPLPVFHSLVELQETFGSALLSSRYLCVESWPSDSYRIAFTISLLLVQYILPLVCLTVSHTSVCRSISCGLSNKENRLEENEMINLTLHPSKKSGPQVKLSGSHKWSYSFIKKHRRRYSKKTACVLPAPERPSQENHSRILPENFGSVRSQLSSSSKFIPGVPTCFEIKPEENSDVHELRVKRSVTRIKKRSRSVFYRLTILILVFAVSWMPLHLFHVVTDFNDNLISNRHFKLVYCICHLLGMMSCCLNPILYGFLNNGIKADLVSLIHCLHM
Method: as §1, §2

[3] = molecular target: T3, NPFF2R (Homo sapiens, UniProt Q9Y5X5); test: cAMP reporter gene assay, Gi/o, NPFF2R; conditions: for cAMP assay (Gi/o), NPFF2R: 4 h, lower = higher Gi/o activity, transfected HEK293, CRE-luciferase, mean of >=3 independent experiments; for Gi (Gs) [x-fold of forskolin], NPFF2R, mean: inhibition of cAMP production induced by 1 µM forskolin (set to 1.00), transiently transfected HEK293 cells, mean of at least three independent experiments
T3 construct: expressed in transfected cells; host or cells: HEK293, transient
T3 sequence (Q9Y5X5 103-522): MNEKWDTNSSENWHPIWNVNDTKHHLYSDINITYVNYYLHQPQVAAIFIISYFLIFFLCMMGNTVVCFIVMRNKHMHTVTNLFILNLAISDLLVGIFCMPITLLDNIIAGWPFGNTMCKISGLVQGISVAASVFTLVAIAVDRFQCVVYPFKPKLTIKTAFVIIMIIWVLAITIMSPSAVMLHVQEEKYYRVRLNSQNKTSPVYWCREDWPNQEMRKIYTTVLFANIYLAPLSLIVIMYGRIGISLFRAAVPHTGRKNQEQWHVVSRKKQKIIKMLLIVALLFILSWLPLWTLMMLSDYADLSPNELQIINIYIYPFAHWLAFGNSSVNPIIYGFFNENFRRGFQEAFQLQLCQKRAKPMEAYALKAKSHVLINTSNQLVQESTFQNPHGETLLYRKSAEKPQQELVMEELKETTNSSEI
Method: as §1, §2

[4] = molecular target: T4, QRFPR (Homo sapiens, UniProt Q96P65); test: IP accumulation assay, endogenous Gαq coupling, QRFPR; conditions: transiently transfected HEK293 cells, mean of at least three independent experiments
T4 construct: expressed in transfected cells; host or cells: HEK293, transient
T4 sequence (Q96P65 1-431): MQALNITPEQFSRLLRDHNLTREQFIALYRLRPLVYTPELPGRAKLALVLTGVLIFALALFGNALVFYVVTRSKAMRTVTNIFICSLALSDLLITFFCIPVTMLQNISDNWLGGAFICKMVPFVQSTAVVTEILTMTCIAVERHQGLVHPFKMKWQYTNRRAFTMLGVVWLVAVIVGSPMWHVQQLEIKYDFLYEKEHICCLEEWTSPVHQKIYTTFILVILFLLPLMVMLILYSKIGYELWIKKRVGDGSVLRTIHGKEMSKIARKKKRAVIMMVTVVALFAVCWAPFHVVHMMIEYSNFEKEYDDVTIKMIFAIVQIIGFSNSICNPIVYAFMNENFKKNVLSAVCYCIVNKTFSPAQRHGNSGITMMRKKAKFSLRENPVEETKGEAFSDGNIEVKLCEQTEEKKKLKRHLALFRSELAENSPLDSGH
Method: For measuring IP accumulation, HEK293 cells grown to 70–80% confluency in 6-well plates were transiently co-transfected using Metafectene Pro (2.5 μl/μg DNA; Biontex) with plasmids containing receptor and/or mock (empty pcDNA3.1) (for endogenous Gq-coupling) using 4 μg total DNA in a ratio of 3:1 following the manufacturer’s instructions. For testing Gα16- and GαΔ6qi4myr-coupling, plasmids encoding the corresponding Gα protein were co-transfected instead of mock. Gα16 is naturally promiscuous and stimulates the phospholipase C (PLC) pathway leading to IP production, while the exchange of the C-terminal four amino acids of Gαq for the corresponding residues of Gαi1 in the chimeric GαΔ6qi4myr confers the ability to couple to Gi/o protein-preferring receptors but still stimulate PLC, thus specifically redirecting downstream cellular signaling. 16 h post transfection, the cells were seeded into white 384-well plates at a density of 20,000 cells/well. Media was removed 24 h later and the cells were incubated with the indicated concentration of peptides for 1 h in HBSS + 20 mM LiCl. IP accumulation was measured with the HTRF-based IP-One Gq kit (Cisbio) on a microplate reader (Tecan Spark).
as §2

[5] = 0.1 µM peptide + 1 µM forskolin (set to 1.00)
[6] = 10 µM peptide + 1 µM forskolin (set to 1.00)

cAMP assay (Gi/o), Y2R [1, 5] | cAMP assay (Gi/o), Y2R [1, 6] | cAMP assay (Gi/o), Y5R [2, 5] | cAMP assay (Gi/o), Y5R [2, 6] | cAMP assay (Gi/o), NPFF2R [3, 5] | cAMP assay (Gi/o), NPFF2R [3, 6] | IP accumulation, x-fold of basal (mean), QRFPR# ([4]; 0.1 µM peptide) | IP accumulation, x-fold of basal (mean), QRFPR# ([4]; 10 µM peptide) | Gi (Gs) [x-fold of forskolin], Y2R, mean ([1]; 0.1 µM peptide) | Gi (Gs) [x-fold of forskolin], Y2R, mean ([1]; 10 µM peptide) | Gi (Gs) [x-fold of forskolin], Y5R, mean ([2]; 0.1 µM peptide) | Gi (Gs) [x-fold of forskolin], Y5R, mean ([2]; 10 µM peptide) | Gi (Gs) [x-fold of forskolin], NPFF2R, mean ([3]; 0.1 µM peptide) | Gi (Gs) [x-fold of forskolin], NPFF2R, mean ([3]; 10 µM peptide) | Substance
0.80 x-fold of forskolin | 0.17 x-fold of forskolin | 1.07 x-fold of forskolin | 0.96 x-fold of forskolin | 0.66 x-fold of forskolin | 0.18 x-fold of forskolin | 0.87 x-fold of basal | 0.95 x-fold of basal | – | – | – | – | – | – | EASAFGDIIGELKGKGLGGRMRF-NH2 [FLP-27, NPY-like C. elegans FLP with C-terminal RxRF/Ya signature]
– | – | – | – | – | – | – | – | 0.86 x-fold of forskolin | 1.05 x-fold of forskolin | 0.89 x-fold of forskolin | 0.91 x-fold of forskolin | 0.94 x-fold of forskolin | 0.97 x-fold of forskolin | RGPSGPLAF-NH2 [[R8A]FLP-15-2]
0.89 x-fold of forskolin | 0.76 x-fold of forskolin | 0.94 x-fold of forskolin | 0.99 x-fold of forskolin | 0.82 x-fold of forskolin | 0.16 x-fold of forskolin | 0.91 x-fold of basal | 0.80 x-fold of basal | – | – | – | – | – | – | APLEGFEDMSGFLRTIDGIQKPRF-NH2 [FLP-33, NPY-like C. elegans FLP with C-terminal RxRF/Ya signature]
